This is an account of results in ChEMBL document CHEMBL5104207, “Synthesis, biological evaluation and computational studies of pyrazole derivatives as Mycobacterium tuberculosis CYP121A1 inhibitors” (RSC Med Chem, 2022).

Molecules are shown by their SMILES. Active and inactive are the calls of the source. The calls are words filed in the database; no cut-off is given here.

This assay deals with Mycobacterium tuberculosis. Put plainly: Binding affinity to BTFA labelled recombinant Mycobacterium tuberculosis CYP121A1 C171S mutant assessed as change in chemical shift perturbation incubated for 15 mins by 19F NMR spectroscopy.
For `COc1ccc(-c2nn(-c3ccc(Cl)cc3)cc2Cn2cncn2)cc1`, the outcome was Active.

With `COc1ccc(-c2nn(-c3ccc(F)cc3)cc2Cn2ccnc2)cc1`, the result was Active.

For the compound `CC(C)Oc1ccc(-c2nn(-c3ccc(F)cc3)cc2Cn2ccnc2)cc1`, the outcome was Active.

With `CCOc1ccc(-c2nn(-c3ccc(Cl)cc3)cc2Cn2cncn2)cc1`, the result was Active.
